Measurements: PubChem BioAssay (NCI)
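Protocol summary: plate cells (96-well), add compound at 5 concentrations, incubate 48 h, interpolate endpoints linearly. Abbreviation: GI50, concentration required for 50% inhibition of growth. TGI denotes the concentration required for complete inhibition of growth.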

Tests used:
Test in all cases: DTP human tumour cell line panel, 48 h
HL-60(TB) leukemia = tested on: HL-60(TB) leukemia
NCI-H23 lung = tested on: NCI-H23 lung
NCI-H226 lung = tested on: NCI-H226 lung
SK-MEL-28 melanoma = tested on: SK-MEL-28 melanoma
MALME-3M melanoma = tested on: MALME-3M melanoma
HT29 colon = tested on: HT29 colon
MOLT-4 leukemia = tested on: MOLT-4 leukemia
SN12C renal = tested on: SN12C renal
HCT-116 colon = tested on: HCT-116 colon
SK-MEL-5 melanoma = tested on: SK-MEL-5 melanoma

Row | SMILES | GI50 (HL-60(TB) leukemia) [µM] | TGI (HL-60(TB) leukemia) [µM] | GI50 (NCI-H23 lung) [µM] | TGI (NCI-H23 lung) [µM] | GI50 (NCI-H226 lung) [µM] | TGI (NCI-H226 lung) [µM] | GI50 (SK-MEL-28 melanoma) [µM] | TGI (SK-MEL-28 melanoma) [µM] | GI50 (MALME-3M melanoma) [µM] | TGI (MALME-3M melanoma) [µM] | GI50 (HT29 colon) [µM] | TGI (HT29 colon) [µM] | GI50 (MOLT-4 leukemia) [µM] | TGI (MOLT-4 leukemia) [µM] | GI50 (SN12C renal) [µM] | TGI (SN12C renal) [µM] | GI50 (HCT-116 colon) [µM] | TGI (HCT-116 colon) [µM] | GI50 (SK-MEL-5 melanoma) [µM] | TGI (SK-MEL-5 melanoma) [µM]
1 | CC/C(=N\Nc1nc2ccccc2n1C)c1ccccn1 | 0.0252 | 0.319 | 0.0452 | 17.6 | 0.117 | 1.05 | 0.214 | 13.5 | 0.127 | 10.3 | < 0.0269 | 18 | < 0.0174 | 7.47 | 0.128 | 12.7 | < 0.01 | 11.8 | 0.174 | 1.39
2 | Clc1ccc(-c2nc3c(-c4ccc(Cl)cc4)nc(-c4ccccc4)cn3c2-c2ccc(Cl)cc2)cc1 | > 50 | > 50 | > 50 | > 50 | > 50 | > 50 | > 50 | > 50 | > 50 | > 50 | > 50 | > 50 | > 50 | > 50 | > 50 | > 50 | > 50 | > 50 | > 50 | > 50
3 | O=C(CCc1nnc2s/c(=C\c3ccccc3)c(=O)n12)Nc1cc(Cl)ccc1Cl | – | > 100 | – | > 100 | – | > 100 | – | > 100 | – | > 100 | – | > 100 | – | > 100 | – | > 100 | – | 66.9 | – | > 100
4 | COc1c(OC(C)=O)cc2c(OC(C)=O)c1CC(C)CC(OC)C(O)C(C)/C=C(\C)C(OC(N)=O)C(OC)/C=C\C=C(/C)C(=O)N2 (stereo not given) | – | > 67.5 | – | > 100 | – | > 100 | – | > 100 | – | > 100 | – | > 100 | – | > 87.4 | – | > 100 | – | > 100 | – | > 100
5 | CC(=O)NNc1nc(C)c(C(=O)NNC(=O)C(=O)Nc2ccc(C)c(C)c2)s1 | – | > 100 | – | > 100 | – | > 100 | – | > 100 | – | > 100 | – | > 100 | – | > 100 | – | > 100 | – | > 100 | – | > 100
6 | COC(=O)C(C(=O)C(=O)Nc1cccc(O)c1)c1nc2ccc(Cl)cc2[nH]c1=O (stereo not given) | – | > 100 | – | > 100 | – | > 100 | – | > 100 | – | > 100 | – | > 100 | – | > 100 | – | > 100 | – | > 100 | – | > 100
7 | COc1cc(CNC(=O)/C=C/C=C/c2ccc3c(c2)OCO3)ccc1OCc1cn(-c2ccc(Cl)c(Cl)c2)nn1 | 2.08 | 5.73 | 0.588 | 2.34 | 1.74 | 4.31 | 1.67 | 3.46 | 0.476 | 1.92 | 2.49 | 8.18 | 0.738 | 2.67 | 1.82 | 4.93 | 1.22 | 2.84 | 1.77 | 3.69
8 | O=C1Cc2cc(CCn3ccnc3)c(Cl)cc2N1 | 63.2 | > 100 | 40.8 | > 100 | > 100 | > 100 | 29.7 | > 100 | 79.5 | > 100 | > 100 | > 100 | 56.7 | > 100 | 16.5 | > 100 | 13.1 | > 100 | 8.12 | > 100
9 | CCCc1cc(=O)oc2c(C(=O)CC(C)C)c(O)c(CC=C(C)C)c(O)c12 | 7.01 | 22.9 | 4.05 | 45.8 | 11.8 | 38.5 | 6.21 | > 50 | 9.89 | 32.4 | 15.1 | > 50 | 11.7 | > 50 | 8.84 | > 50 | 8.59 | > 50 | 2.53 | 11
10 | COc1cc2c(cc1OC)C(CCc1ccc(Cl)cc1)N(C)CC2 (stereo not given) | 17.2 | 44.3 | 30.1 | > 100 | 58.6 | > 100 | 20.1 | 46.9 | 21.6 | 46.5 | 14.2 | 86 | 35.7 | 94.9 | 39.9 | > 100 | 13.8 | 52.9 | 14.4 | 27.6
11 | O=c1[nH]c(=S)[nH]c2c1sc(=S)n2-c1ccccc1 | – | > 100 | – | > 100 | – | > 100 | – | > 100 | – | > 100 | – | > 100 | – | > 100 | – | > 100 | – | > 100 | – | > 100
12 | CCCOc1ccc(/C(Cl)=C(\C=O)c2ccc(OC)c(OC)c2)cc1OCCC | – | 20.9 | – | 21.6 | – | 32.4 | – | 25.3 | – | 38.8 | – | 18.5 | – | > 100 | – | > 100 | – | 10.8 | – | 46.3
13 | Cc1cccc(CN(C)c2ccc(CO)c(Cl)c2)c1 | 23.8 | 82.6 | 14.6 | > 73.1 | 0.123 | 0.279 | 19.3 | > 76.1 | 19.5 | 49.8 | 11.9 | > 55.3 | 22.2 | > 75.5 | 15 | 48.9 | 0.549 | 12.3 | 9.47 | 22.3
14 | O=C1NC(=NCC(CO)c2ccccc2)S/C1=C\c1ccc2ncccc2c1 (stereo not given) | 8.34 | > 25 | 12.1 | > 25 | > 25 | > 25 | > 25 | > 25 | > 25 | > 25 | 19.7 | > 25 | > 25 | > 25 | 17.6 | > 25 | 8.51 | > 25 | > 25 | > 25
